Data reported in the kinase profiling compilation of Christmann-Franck et al. (2016).

Columns and labels:
Test in all cases: KINOMEscan competition binding
Settings in all cases: compound 10.0 µM
[1] = molecular target: ABL2 (human) (UniProt P42684)
[2] = molecular target: ACVRL1 (human) (UniProt P37023)
[3] = molecular target: AKT3 (human) (UniProt Q9Y243)
[4] = molecular target: CDC42BPB (human) (UniProt Q9Y5S2)
[5] = molecular target: DCLK3 (human) (UniProt Q9C098)
[6] = molecular target: DYRK2 (human) (UniProt Q92630)
[7] = molecular target: EPHA3 (human) (UniProt P29320)
[8] = molecular target: EPHA6 (human) (UniProt Q9UF33)
[9] = molecular target: EPHA7 (human) (UniProt Q15375)
[10] = molecular target: EPHB2 (human) (UniProt P29323)
[11] = molecular target: EPHB4 (human) (UniProt P54760)
[12] = molecular target: GRK1 (human) (UniProt Q15835)
[13] = molecular target: HIPK2 (human) (UniProt Q9H2X6)
[14] = molecular target: MAP3K1 (human) (UniProt Q13233)
[15] = molecular target: MAP3K10 (human) (UniProt Q02779)
[16] = molecular target: MAP3K12 (human) (UniProt Q12852)
[17] = molecular target: MAP3K2 (human) (UniProt Q9Y2U5)
[18] = molecular target: PAK6 (human) (UniProt Q9NQU5)
[19] = molecular target: PIK3C2G (human) (UniProt O75747)
[20] = molecular target: PIK3CA (human) (UniProt P42336)
[21] = system: PIK3CA (human), P42336 [E542K]
[22] = molecular target: PIK3CB (human) (UniProt P42338)
[23] = molecular target: PIM1 (human) (UniProt P11309)
[24] = molecular target: PKN1 (human) (UniProt Q16512)
[25] = molecular target: RPS6KA1 KD2 (human) (UniProt Q15418)
[26] = molecular target: SIK2 (human) (UniProt Q9H0K1)
[27] = molecular target: STK11 (human) (UniProt Q15831)
[28] = molecular target: STK32B (human) (UniProt Q9NY57)
[29] = molecular target: STK4 (human) (UniProt Q13043)
[30] = molecular target: TLK1 (human) (UniProt Q9UKI8)
[31] = molecular target: TLK2 (human) (UniProt Q86UE8)
[32] = molecular target: TYRO3 (human) (UniProt Q06418)
[33] = molecular target: ULK3 (human) (UniProt Q6PHR2)

Chain of SIK2 (human) (Q9H0K1 whole entry, looked up): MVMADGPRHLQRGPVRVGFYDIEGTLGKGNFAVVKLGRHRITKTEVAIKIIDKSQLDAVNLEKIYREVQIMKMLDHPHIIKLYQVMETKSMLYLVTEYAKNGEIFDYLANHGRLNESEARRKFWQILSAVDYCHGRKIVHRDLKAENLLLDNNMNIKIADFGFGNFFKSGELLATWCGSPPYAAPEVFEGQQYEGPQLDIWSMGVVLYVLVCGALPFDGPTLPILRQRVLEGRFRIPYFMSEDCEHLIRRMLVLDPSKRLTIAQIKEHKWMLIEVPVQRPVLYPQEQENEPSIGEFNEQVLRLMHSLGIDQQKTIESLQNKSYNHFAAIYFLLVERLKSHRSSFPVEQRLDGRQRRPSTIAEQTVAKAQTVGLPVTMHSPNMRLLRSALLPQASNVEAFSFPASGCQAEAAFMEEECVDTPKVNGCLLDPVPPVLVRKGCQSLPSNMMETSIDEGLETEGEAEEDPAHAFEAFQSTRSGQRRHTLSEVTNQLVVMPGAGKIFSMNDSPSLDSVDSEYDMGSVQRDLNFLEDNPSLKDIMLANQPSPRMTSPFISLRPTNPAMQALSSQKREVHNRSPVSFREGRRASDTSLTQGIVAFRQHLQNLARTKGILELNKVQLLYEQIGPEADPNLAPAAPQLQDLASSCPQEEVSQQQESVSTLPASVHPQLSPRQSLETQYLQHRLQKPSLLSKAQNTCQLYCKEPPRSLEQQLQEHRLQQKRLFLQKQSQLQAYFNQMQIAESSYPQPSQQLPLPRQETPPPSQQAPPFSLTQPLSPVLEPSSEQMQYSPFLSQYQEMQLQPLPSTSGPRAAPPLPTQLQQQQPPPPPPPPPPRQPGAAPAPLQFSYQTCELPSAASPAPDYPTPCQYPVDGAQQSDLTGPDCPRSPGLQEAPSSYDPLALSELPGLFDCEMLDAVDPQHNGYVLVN
Chain of EPHA6 (human) (Q9UF33 whole entry, looked up): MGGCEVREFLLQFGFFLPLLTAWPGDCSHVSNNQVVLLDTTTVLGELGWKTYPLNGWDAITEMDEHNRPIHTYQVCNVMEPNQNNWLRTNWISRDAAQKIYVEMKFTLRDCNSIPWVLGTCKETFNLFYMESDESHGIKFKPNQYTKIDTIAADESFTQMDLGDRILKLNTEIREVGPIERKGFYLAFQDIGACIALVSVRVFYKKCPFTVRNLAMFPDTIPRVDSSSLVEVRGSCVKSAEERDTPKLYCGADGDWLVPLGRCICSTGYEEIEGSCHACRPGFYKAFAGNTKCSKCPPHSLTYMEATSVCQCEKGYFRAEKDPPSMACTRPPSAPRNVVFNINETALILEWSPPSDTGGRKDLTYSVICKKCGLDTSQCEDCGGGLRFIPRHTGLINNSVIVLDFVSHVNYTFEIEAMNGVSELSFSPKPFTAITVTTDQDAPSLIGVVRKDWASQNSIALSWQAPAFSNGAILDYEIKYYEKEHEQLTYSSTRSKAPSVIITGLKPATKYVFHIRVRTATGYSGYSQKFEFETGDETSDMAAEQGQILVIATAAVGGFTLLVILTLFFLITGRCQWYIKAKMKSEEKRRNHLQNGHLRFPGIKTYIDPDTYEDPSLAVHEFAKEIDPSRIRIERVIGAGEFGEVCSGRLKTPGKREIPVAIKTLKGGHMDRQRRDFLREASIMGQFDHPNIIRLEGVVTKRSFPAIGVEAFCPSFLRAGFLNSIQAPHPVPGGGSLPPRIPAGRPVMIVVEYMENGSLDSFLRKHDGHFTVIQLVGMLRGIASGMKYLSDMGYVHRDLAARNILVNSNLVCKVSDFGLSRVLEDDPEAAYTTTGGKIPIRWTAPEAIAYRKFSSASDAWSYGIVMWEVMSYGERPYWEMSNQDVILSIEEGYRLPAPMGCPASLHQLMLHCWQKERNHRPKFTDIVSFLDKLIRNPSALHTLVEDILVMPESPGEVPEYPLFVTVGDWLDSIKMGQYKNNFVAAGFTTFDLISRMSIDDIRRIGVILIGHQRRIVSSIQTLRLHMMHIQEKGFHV
Chain of PIM1 (human) (P11309 whole entry, looked up): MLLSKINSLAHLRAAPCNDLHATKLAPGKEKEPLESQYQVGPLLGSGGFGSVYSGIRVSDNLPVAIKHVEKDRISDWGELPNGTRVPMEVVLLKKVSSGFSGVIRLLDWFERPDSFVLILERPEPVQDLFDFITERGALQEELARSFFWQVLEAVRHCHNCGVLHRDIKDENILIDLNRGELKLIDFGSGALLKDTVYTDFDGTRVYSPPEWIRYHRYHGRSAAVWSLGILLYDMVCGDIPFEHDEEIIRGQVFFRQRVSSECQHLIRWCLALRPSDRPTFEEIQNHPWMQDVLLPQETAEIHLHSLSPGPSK
Chain of PAK6 (human) (Q9NQU5 whole entry, looked up): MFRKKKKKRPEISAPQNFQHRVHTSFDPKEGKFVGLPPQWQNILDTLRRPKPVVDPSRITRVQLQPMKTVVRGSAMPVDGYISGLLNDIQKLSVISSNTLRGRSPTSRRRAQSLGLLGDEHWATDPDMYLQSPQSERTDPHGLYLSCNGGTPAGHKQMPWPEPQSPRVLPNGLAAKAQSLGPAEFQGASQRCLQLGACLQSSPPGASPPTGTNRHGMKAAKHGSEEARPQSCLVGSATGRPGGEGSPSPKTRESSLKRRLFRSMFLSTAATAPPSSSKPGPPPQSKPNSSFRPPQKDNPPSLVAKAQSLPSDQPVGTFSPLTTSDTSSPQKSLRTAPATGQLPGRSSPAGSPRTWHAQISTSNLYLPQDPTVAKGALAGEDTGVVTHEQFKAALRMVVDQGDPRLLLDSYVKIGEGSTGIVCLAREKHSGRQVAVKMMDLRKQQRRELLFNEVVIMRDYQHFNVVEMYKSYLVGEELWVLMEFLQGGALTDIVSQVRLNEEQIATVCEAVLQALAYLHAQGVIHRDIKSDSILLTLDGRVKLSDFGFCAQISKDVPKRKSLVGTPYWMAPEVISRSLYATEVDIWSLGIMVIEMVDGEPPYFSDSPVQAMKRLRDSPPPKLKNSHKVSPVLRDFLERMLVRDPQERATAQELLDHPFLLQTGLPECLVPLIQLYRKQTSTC
Chain of EPHA7 (human) (Q15375 whole entry, looked up): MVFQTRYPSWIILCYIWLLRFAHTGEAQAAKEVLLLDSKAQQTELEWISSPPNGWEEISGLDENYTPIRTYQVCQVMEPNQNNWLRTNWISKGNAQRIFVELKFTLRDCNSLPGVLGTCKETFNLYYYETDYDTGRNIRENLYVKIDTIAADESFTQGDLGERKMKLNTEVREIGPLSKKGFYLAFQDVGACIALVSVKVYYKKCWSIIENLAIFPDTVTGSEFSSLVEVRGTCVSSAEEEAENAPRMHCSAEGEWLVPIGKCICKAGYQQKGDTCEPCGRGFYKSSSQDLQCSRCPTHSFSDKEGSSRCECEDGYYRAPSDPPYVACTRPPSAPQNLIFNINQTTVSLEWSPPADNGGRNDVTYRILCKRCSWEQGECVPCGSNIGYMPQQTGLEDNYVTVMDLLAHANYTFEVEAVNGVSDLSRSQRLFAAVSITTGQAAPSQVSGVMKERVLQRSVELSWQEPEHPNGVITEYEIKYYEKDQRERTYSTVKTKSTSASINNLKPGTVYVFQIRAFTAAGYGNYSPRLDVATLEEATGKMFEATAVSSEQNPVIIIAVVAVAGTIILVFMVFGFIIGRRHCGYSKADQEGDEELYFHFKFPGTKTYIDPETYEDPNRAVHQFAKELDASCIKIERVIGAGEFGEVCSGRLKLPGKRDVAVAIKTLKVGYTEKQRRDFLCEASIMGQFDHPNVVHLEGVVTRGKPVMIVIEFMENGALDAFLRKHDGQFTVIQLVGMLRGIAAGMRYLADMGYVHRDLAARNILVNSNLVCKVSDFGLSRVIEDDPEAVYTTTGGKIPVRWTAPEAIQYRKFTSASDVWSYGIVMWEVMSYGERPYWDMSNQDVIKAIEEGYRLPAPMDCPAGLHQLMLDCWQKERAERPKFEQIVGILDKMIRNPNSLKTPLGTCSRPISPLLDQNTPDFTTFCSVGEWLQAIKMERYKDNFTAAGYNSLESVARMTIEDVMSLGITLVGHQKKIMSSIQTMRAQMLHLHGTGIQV
Chain of ACVRL1 (human) (P37023 whole entry, looked up): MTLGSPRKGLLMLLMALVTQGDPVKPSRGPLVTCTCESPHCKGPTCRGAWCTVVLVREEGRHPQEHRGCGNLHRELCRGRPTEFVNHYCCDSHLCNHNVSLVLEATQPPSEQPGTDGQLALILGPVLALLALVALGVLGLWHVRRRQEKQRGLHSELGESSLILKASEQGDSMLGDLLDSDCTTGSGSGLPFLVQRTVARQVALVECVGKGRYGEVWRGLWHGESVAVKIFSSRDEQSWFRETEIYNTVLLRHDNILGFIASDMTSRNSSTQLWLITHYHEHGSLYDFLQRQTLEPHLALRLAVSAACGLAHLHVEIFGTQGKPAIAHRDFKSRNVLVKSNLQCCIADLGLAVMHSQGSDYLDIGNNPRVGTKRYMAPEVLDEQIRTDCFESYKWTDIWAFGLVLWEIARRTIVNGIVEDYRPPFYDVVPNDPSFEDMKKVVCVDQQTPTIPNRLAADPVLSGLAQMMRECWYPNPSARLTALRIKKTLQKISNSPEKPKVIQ
Chain of STK32B (human) (Q9NY57 whole entry, looked up): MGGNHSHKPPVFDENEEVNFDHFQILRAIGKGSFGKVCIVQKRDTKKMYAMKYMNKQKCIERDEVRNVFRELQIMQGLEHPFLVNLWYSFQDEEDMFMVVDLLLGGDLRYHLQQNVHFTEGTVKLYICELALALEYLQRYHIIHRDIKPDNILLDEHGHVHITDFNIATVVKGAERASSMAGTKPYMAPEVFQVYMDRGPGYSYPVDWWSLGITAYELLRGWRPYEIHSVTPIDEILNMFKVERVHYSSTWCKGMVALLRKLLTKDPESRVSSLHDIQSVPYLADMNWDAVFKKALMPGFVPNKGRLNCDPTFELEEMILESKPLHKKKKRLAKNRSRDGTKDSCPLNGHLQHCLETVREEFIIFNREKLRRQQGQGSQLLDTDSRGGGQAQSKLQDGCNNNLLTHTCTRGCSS

Compound: Cc1cn(-c2cc(C(=O)Nc3ccc(C)c(NC(=O)c4ccno4)c3)cc(C(F)(F)F)c2)cn1
- kinase still bound, per cent of control [1]: 1.8%
- kinase still bound, per cent of control [2]: 100%
- kinase still bound, per cent of control [3]: 100%
- kinase still bound, per cent of control [4]: 100%
- kinase still bound, per cent of control [5]: 100%
- kinase still bound, per cent of control [6]: 100%
- kinase still bound, per cent of control [7]: 9.5%
- kinase still bound, per cent of control [8]: 100%
- kinase still bound, per cent of control [9]: 100%
- kinase still bound, per cent of control [10]: 9%
- kinase still bound, per cent of control [11]: 15%
- kinase still bound, per cent of control [12]: 100%
- kinase still bound, per cent of control [13]: 100%
- kinase still bound, per cent of control [14]: 100%
- kinase still bound, per cent of control [15]: 100%
- kinase still bound, per cent of control [16]: 100%
- kinase still bound, per cent of control [17]: 100%
- kinase still bound, per cent of control [18]: 100%
- kinase still bound, per cent of control [19]: 100%
- kinase still bound, per cent of control [20]: 100%
- kinase still bound, per cent of control [21]: 100%
- kinase still bound, per cent of control [22]: 100%
- kinase still bound, per cent of control [23]: 100%
- kinase still bound, per cent of control [24]: 100%
- kinase still bound, per cent of control [25]: 100%
- kinase still bound, per cent of control [26]: 100%
- kinase still bound, per cent of control [27]: 100%
- kinase still bound, per cent of control [28]: 100%
- kinase still bound, per cent of control [29]: 100%
- kinase still bound, per cent of control [30]: 100%
- kinase still bound, per cent of control [31]: 100%
- kinase still bound, per cent of control [32]: 100%
- kinase still bound, per cent of control [33]: 100%

Compound: COc1cc(C)c(Sc2cnc(NC(=O)c3ccc(CNC(C)C(C)C)cc3)s2)cc1C(=O)N1CCN(C(C)=O)CC1 (configuration not stated)
- kinase still bound, per cent of control [1]: 100%
- kinase still bound, per cent of control [2]: 100%
- kinase still bound, per cent of control [3]: 100%
- kinase still bound, per cent of control [4]: 100%
- kinase still bound, per cent of control [5]: 4.2%
- kinase still bound, per cent of control [7]: 25%
- kinase still bound, per cent of control [8]: 11%
- kinase still bound, per cent of control [9]: 100%
- kinase still bound, per cent of control [10]: 100%
- kinase still bound, per cent of control [11]: 100%
- kinase still bound, per cent of control [15]: 100%
- kinase still bound, per cent of control [16]: 30%
- kinase still bound, per cent of control [18]: 100%
- kinase still bound, per cent of control [20]: 100%
- kinase still bound, per cent of control [22]: 100%
- kinase still bound, per cent of control [23]: 100%
- kinase still bound, per cent of control [24]: 100%
- kinase still bound, per cent of control [25]: 100%
- kinase still bound, per cent of control [26]: 100%
- kinase still bound, per cent of control [27]: 100%
- kinase still bound, per cent of control [28]: 100%
- kinase still bound, per cent of control [29]: 100%
- kinase still bound, per cent of control [30]: 100%
- kinase still bound, per cent of control [31]: 100%
- kinase still bound, per cent of control [32]: 100%
- kinase still bound, per cent of control [33]: 100%

Compound: COc1ccc(N(C(=O)Oc2cc(C(=O)Nc3cccc(C(F)(F)F)c3)ccc2C)c2ccnc(Nc3ccc(N4CCN(C)CC4)cc3)n2)c(OC)c1
- kinase still bound, per cent of control [1]: 0.35%
- kinase still bound, per cent of control [2]: 100%
- kinase still bound, per cent of control [3]: 100%
- kinase still bound, per cent of control [4]: 100%
- kinase still bound, per cent of control [5]: 100%
- kinase still bound, per cent of control [7]: 0.1%
- kinase still bound, per cent of control [8]: 0.35%
- kinase still bound, per cent of control [9]: 0.6%
- kinase still bound, per cent of control [10]: 0.9%
- kinase still bound, per cent of control [11]: 0.3%
- kinase still bound, per cent of control [15]: 100%
- kinase still bound, per cent of control [16]: 100%
- kinase still bound, per cent of control [18]: 100%
- kinase still bound, per cent of control [20]: 100%
- kinase still bound, per cent of control [23]: 100%
- kinase still bound, per cent of control [24]: 100%
- kinase still bound, per cent of control [25]: 100%
- kinase still bound, per cent of control [26]: 1.9%
- kinase still bound, per cent of control [27]: 100%
- kinase still bound, per cent of control [28]: 100%
- kinase still bound, per cent of control [29]: 100%
- kinase still bound, per cent of control [30]: 100%
- kinase still bound, per cent of control [31]: 100%
- kinase still bound, per cent of control [32]: 100%

Compound: COc1cc(N2CCC(C(N)=O)CC2)ccc1Nc1nc(N)c(Cl)c(Nc2ccccc2S(=O)(=O)C(C)C)n1
- kinase still bound, per cent of control [1]: 100%
- kinase still bound, per cent of control [2]: 100%
- kinase still bound, per cent of control [3]: 100%
- kinase still bound, per cent of control [4]: 100%
- kinase still bound, per cent of control [5]: 100%
- kinase still bound, per cent of control [7]: 100%
- kinase still bound, per cent of control [8]: 100%
- kinase still bound, per cent of control [9]: 15%
- kinase still bound, per cent of control [10]: 100%
- kinase still bound, per cent of control [11]: 100%
- kinase still bound, per cent of control [15]: 100%
- kinase still bound, per cent of control [16]: 100%
- kinase still bound, per cent of control [18]: 100%
- kinase still bound, per cent of control [20]: 100%
- kinase still bound, per cent of control [22]: 100%
- kinase still bound, per cent of control [23]: 100%
- kinase still bound, per cent of control [24]: 100%
- kinase still bound, per cent of control [25]: 30%
- kinase still bound, per cent of control [26]: 100%
- kinase still bound, per cent of control [27]: 100%
- kinase still bound, per cent of control [28]: 3.7%
- kinase still bound, per cent of control [29]: 100%
- kinase still bound, per cent of control [30]: 100%
- kinase still bound, per cent of control [31]: 100%
- kinase still bound, per cent of control [32]: 100%
- kinase still bound, per cent of control [33]: 100%

Compound: CCOc1cc(N2CCC(O)CC2)ccc1Nc1ncc2c(n1)N(C)c1ccccc1C(=O)N2C
- kinase still bound, per cent of control [1]: 100%
- kinase still bound, per cent of control [2]: 100%
- kinase still bound, per cent of control [3]: 100%
- kinase still bound, per cent of control [4]: 100%
- kinase still bound, per cent of control [5]: 100%
- kinase still bound, per cent of control [6]: 100%
- kinase still bound, per cent of control [7]: 100%
- kinase still bound, per cent of control [8]: 100%
- kinase still bound, per cent of control [9]: 100%
- kinase still bound, per cent of control [10]: 100%
- kinase still bound, per cent of control [11]: 100%
- kinase still bound, per cent of control [12]: 100%
- kinase still bound, per cent of control [13]: 100%
- kinase still bound, per cent of control [14]: 100%
- kinase still bound, per cent of control [15]: 100%
- kinase still bound, per cent of control [16]: 100%
- kinase still bound, per cent of control [17]: 100%
- kinase still bound, per cent of control [18]: 100%
- kinase still bound, per cent of control [19]: 100%
- kinase still bound, per cent of control [20]: 100%
- kinase still bound, per cent of control [21]: 100%
- kinase still bound, per cent of control [22]: 100%
- kinase still bound, per cent of control [23]: 100%
- kinase still bound, per cent of control [24]: 100%
- kinase still bound, per cent of control [25]: 28%
- kinase still bound, per cent of control [26]: 100%
- kinase still bound, per cent of control [27]: 100%
- kinase still bound, per cent of control [28]: 100%
- kinase still bound, per cent of control [29]: 100%
- kinase still bound, per cent of control [30]: 100%
- kinase still bound, per cent of control [31]: 100%
- kinase still bound, per cent of control [32]: 100%
- kinase still bound, per cent of control [33]: 100%
